The target in assay [1] is Dual specificity protein kinase CLK1 (Homo sapiens, UniProt P49759). Type of assay: cell-based, Sf9.
Assay [2] has as its target Dual specificity protein kinase CLK2 (Homo sapiens, UniProt P49760).
Assay [3] concerns the target T1, Dual specificity tyrosine-phosphorylation-regulated kinase 2 (Homo sapiens, UniProt Q92630).
T1 sequence (Q92630 whole entry): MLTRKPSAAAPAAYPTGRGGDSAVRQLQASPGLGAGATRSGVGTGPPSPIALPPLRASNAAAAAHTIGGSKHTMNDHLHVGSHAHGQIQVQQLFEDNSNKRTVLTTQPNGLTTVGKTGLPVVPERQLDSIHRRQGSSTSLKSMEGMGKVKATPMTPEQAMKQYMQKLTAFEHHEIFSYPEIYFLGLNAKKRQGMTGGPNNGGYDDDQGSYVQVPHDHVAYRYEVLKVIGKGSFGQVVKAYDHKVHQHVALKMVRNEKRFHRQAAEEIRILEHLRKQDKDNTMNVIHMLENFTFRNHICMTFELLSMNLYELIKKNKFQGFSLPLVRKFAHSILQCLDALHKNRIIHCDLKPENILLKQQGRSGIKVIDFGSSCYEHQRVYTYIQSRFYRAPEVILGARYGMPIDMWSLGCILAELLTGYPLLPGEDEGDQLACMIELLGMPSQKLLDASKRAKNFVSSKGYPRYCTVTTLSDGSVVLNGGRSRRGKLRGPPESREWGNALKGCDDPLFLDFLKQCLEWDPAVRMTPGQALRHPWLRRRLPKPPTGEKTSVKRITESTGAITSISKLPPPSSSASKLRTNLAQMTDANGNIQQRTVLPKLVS

The target of assay [4] is Dual specificity tyrosine-phosphorylation-regulated kinase 1A (Homo sapiens, UniProt Q13627). To be noted: dose 10.0 µM.
The target of assay [5] is BMP-2-inducible protein kinase (Homo sapiens) (UniProt Q9NSY1). To be noted: dose 10.0 µM.
Sequence of BMP-2-inducible protein kinase (Homo sapiens) (Q9NSY1 whole entry, looked up): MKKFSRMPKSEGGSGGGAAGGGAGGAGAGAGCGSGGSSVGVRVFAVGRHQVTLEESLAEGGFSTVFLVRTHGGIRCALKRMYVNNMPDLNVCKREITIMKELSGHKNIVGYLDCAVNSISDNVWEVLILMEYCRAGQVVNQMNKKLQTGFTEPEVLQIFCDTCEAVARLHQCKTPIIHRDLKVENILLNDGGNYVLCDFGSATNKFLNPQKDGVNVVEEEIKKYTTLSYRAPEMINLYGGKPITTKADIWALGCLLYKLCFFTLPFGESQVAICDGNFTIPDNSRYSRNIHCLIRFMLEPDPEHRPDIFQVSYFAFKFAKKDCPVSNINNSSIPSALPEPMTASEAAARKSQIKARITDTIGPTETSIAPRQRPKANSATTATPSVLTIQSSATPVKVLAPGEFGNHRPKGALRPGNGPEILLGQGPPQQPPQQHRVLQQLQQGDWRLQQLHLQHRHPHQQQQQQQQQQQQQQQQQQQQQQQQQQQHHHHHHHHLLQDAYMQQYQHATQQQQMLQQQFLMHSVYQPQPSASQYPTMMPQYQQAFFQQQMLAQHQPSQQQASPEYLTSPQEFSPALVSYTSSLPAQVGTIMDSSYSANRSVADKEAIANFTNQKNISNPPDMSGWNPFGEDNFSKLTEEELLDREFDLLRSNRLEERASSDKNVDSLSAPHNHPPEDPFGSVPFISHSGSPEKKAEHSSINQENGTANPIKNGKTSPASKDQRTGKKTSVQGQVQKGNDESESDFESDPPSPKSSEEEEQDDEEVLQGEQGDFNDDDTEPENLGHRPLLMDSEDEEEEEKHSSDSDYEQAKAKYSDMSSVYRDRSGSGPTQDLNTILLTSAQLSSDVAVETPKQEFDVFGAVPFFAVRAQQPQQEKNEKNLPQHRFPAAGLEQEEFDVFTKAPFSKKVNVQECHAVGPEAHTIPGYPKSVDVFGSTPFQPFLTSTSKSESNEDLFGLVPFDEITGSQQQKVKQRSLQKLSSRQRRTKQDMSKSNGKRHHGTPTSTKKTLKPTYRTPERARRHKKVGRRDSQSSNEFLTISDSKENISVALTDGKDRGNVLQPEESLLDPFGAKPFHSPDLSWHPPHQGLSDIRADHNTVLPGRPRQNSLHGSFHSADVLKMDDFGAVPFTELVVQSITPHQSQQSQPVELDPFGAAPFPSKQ
In assay [6] the target is Dual specificity protein kinase CLK3 (Homo sapiens, UniProt P49761). To be noted: dose 10.0 µM.
Sequence of Dual specificity protein kinase CLK3 (P49761 whole entry, looked up): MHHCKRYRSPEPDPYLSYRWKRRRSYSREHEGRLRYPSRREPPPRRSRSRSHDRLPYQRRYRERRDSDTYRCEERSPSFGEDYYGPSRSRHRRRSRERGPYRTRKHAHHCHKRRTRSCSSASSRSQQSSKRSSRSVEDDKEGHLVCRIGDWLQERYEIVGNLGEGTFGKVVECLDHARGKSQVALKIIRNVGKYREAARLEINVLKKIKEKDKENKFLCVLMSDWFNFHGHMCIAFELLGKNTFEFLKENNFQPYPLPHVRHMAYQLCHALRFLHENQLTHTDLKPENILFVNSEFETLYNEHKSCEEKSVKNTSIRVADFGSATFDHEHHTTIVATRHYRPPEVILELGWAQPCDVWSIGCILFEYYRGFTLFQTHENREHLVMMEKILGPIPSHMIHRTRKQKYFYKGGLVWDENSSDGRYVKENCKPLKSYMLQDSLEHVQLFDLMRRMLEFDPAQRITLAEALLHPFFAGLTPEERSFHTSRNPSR
Assay [7] addresses AP2-associated protein kinase 1 (Homo sapiens) (UniProt Q2M2I8). To be noted: dose 10.0 µM.

A word on the pIC50: it is the negative decadic logarithm of the IC50, by convention in mol/L. A high value points to a low IC50. As a reminder, the ΔTm is the shift of the melting midpoint relative to a reference.

pIC50: −log10 of the molar value. Some results are limits rather than exact numbers.

Sequence of Dual specificity protein kinase CLK1 (P49759 whole entry): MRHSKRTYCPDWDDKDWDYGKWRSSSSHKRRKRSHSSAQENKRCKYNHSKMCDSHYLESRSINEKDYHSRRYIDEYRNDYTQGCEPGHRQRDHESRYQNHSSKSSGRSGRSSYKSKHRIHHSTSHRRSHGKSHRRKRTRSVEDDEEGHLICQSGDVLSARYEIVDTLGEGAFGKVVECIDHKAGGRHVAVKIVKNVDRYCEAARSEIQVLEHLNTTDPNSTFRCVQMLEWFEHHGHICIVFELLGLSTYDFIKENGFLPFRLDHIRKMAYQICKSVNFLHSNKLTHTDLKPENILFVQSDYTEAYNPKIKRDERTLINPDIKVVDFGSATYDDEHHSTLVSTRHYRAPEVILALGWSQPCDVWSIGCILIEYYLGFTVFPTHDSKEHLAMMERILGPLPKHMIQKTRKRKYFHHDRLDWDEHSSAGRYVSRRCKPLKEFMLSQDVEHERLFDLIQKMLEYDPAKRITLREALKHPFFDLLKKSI
Sequence of AP2-associated protein kinase 1 (Homo sapiens) (Q2M2I8 whole entry, looked up): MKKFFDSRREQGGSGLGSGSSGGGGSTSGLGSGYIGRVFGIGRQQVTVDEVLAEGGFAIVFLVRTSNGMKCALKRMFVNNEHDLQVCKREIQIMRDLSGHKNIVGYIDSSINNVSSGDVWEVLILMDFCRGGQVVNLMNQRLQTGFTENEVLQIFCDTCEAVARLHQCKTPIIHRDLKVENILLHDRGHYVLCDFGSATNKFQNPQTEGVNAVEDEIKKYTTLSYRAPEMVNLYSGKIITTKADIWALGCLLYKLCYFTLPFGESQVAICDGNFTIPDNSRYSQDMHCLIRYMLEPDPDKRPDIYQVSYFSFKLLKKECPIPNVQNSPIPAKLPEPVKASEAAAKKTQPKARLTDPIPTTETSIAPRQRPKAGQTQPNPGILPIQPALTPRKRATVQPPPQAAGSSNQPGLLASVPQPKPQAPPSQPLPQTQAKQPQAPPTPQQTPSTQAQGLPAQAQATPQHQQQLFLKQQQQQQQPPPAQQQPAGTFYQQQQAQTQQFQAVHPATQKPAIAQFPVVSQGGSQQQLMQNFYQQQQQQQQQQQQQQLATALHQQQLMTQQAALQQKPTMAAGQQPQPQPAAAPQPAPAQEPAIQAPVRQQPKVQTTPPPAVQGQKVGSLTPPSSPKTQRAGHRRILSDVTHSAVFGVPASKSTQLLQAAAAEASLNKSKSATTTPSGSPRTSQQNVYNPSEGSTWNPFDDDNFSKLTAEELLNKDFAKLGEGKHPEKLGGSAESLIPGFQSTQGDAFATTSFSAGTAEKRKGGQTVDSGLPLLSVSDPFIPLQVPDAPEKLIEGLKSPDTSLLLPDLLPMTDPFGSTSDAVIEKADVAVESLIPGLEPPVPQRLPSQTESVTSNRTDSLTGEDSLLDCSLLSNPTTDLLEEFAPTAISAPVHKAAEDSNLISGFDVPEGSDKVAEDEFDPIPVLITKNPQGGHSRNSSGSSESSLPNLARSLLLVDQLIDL
Sequence of Dual specificity protein kinase CLK2 (P49760 whole entry): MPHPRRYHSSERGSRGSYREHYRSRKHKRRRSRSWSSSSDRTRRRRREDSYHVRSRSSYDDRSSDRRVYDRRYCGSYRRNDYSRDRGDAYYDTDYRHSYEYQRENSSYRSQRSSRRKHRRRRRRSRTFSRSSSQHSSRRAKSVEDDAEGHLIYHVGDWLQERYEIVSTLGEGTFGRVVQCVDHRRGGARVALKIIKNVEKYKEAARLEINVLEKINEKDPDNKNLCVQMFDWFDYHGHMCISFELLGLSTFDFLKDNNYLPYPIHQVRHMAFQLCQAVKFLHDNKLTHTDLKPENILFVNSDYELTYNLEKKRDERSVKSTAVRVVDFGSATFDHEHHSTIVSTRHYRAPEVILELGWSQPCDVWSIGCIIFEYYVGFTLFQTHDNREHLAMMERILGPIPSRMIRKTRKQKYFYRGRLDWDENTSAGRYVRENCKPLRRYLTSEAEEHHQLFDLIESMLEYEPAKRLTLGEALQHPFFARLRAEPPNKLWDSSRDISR

Consider `O=C1NC(NC23CC4CC(CC(C4)C2)C3)=N/C1=C\c1ccc2scnc2c1`, for which the results for the pIC50 in assay [1], in assay [2] and in assay [3] were 5.05, 5.08 and below 5.00, respectively. Moreover, the ΔTm in assay [4] is 3.2 °C; in assay [5], -0.1 °C; in assay [6], -0.5 °C; in assay [7], 0 °C.

Source of the values: ChEMBL document CHEMBL5360622, “Leucettinibs, a Class of DYRK/CLK Kinase Inhibitors Inspired by the Marine Sponge Natural Product Leucettamine B” (J Med Chem, 2023).
